Biological target: T1, E. coli yfhC polypeptide (Escherichia coli, UniProt P68398)
T1 construct: made in house; negative controls used a pBAD-derived vector
Experiment: yfhC polypeptide deamination of a defined substrate, inosine monitored by HPLC of the digest
Format: biochemical
Details: 2 μg yfhC polypeptide (cell lysate), 20 μg stem loop or 8 μg tRNA^Arg2, 50 μl, 30 min
Method: The experimental protocol consisted of two steps. First an in vitro reaction was conducted using a defined yfhC substrate and the yfhC polypeptide supplied as a lysate from an over-producing strain of bacteria. The reactions were then digested enzymatically to mononucleotides with a mixture of three enzymes (nuclease P1, snake venom phosphodiesterase and alkaline phosphatase and the resultant digest analyzed by HPLC to monitor for the appearance of inosine (the product of the yfhC polypeptide deamination reaction).
In this experiment, a series of reactions were run with a synthetic RNA corresponding to the following anticodon stem loop 17-mer of E. coli tRNA^Arg2, in both the linear and folded form (the anticodon is underlined):
All reactions were carried out with the indicated amounts of yfhC substrate and yfhC polypeptide (in the form of a cell lysate) in a final volume of 50 μl. For experiments employing refolded yfhC substrate, the substrate was first boiled and slowly cooled in refolding buffer (30 mM HEPES, pH 7.9, 150 mM NaCl, 10 mM Mg Cl2) prior to adding to the reaction mixture. […] The pellets were resuspended in 50 μl H2O, digested with a mixture of nuclease P1, snake venom phosphodiesterase 1 and alkaline phosphatase (all enzymes in excess) and analyzed by HPLC (Develosil C-30 column, 2 mm×250 mm; Nomura Chemical, Japan). […]

T1 sequence (P68398 whole entry): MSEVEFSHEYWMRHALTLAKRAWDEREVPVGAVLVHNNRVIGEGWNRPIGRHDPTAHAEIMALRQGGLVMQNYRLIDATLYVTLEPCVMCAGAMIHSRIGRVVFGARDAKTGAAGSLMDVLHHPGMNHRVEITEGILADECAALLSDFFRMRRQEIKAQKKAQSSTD

With “stem loop: synthetic RNA 17-mer corresponding to the anticodon stem loop of E. coli tRNA^Arg2, linear and refolded; yfhC substrate (CNCGGCNACGAACCGAG; RNA, backbone, methylation of C and the base at N not given here; n positions are unspecified nucleotides, further chemistry not fully specified)” the “activity as yfhC substrate (inosine peak in HPLC elution profile)” value was “greatest-activity”.

Source: patent US20050113296A1, “Methods for identifying antimicrobial agents, the agents identified therewith and methods of using same” (priority 2001, published 2005)
